The text below walks through data of PMC4987650, “Structural Investigation of Park’s Nucleotide on Bacterial Translocase MraY: Discovery of Unexpected MraY Inhibitors” (Scientific Reports, 2016).

Type in all cases: biochemical
The target in assay [1] is T1, MraYBS (Bacillus subtilis, UniProt Q03521).
T1 construct: MBP; made in house
T1 sequence (Q03521 1-324): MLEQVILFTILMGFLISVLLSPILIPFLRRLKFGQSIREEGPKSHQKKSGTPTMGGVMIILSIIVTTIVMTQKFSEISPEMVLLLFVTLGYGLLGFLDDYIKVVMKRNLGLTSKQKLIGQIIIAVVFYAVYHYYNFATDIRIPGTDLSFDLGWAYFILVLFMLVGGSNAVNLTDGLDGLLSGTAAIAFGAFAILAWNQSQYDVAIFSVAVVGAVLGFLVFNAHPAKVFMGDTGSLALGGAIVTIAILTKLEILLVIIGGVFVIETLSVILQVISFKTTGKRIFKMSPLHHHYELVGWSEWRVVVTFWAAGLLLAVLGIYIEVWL
As to the kind of experiment: MraY fluorescence enhancement assay (kinetics, inhibition). The conditions noted are these: WT MraYBS, 6 as the substrate. As to the method:
(§1) Determine kinetic parameters by MraY fluorescence enhancement assay. The fluorescence enhancement assay was performed in 384-well plate as described by Bugg et al. with slight modifications.5 The reaction mixture containing MraYBS (10 μg/mL), C55P (200 μM) in 30 μL reaction buffer (30 mM Tris, 10 mM MgCl2, 10 mM NaCl, 0.1 mM Tween-20, 2.5% DMSO, pH 8.0) were pre-incubated at 37 °C for 15 min. The reactions were initiated by the addition of various concentrations of NBD-Park’s nucleotide 6 (0 to 160 μM). For inhibition study, a various concentrations of inhibitors were added before the addition of substrate 6. The continuous fluorescence increase over 60 min was monitored with λex 466 nm/λem 535 nm by fluorescence microplate reader (SpectraMax M5, Molecular Devices, LLC) at 37 °C. Linear regressions of increased fluorescent units (FLU) versus time (min) were used to calculate the initial velocities for each reaction. The kinetic parameters values (Ki, KM, and Vmax) were obtained by nonlinear regression analysis using the […] equation with the GraphPad Prism program (GraphPad Software, San

Assay [2] addresses T2, MraYBS F228A mutant (Bacillus subtilis, UniProt Q03521, F228A).
T2 construct: MBP; made in house
As to the kind of experiment: Fluorescent enhancement assay, mutant MraY. The conditions noted are these: 6 as the substrate. On the procedure: (§2) Site–directed mutagenesis of MraY. Site-directed mutagenesis of the B. subtilis MBP-tagged MraY enzyme was performed directly on the pMAL -BS-MraY-16 expression plasmid by using the “Quickchanged XL Site-Directed Mutagenesis Kit ’’ from stratagene and the oligonucleotides shown below. Mutations introduced in the mraY gene sequence were checked by DNA sequencing. […]
(§3) MraY-T51A-R 5’-[…]-3’
(§4) T53A MraY-T53A-F 5’-[…]-3’
(§5) MraY-T53A-R 5’-[…]-3’
(§6) K102A MraY-K102A-F 5’-[…]-3’
(§7) MraY-K102A-R 5’-[…]-3’
(§8) K226A Mray-K226A-F 5’-[…]-3’ […]
(§9) F228A MraY-F228A-F 5’-[…]-3’
(§10) MraY-F228A-R 5’-[…]-3’
(§11) Q271A Mray-Q271A-F 5’-[…]-3’
(§12) Mray-Q271A-R 5’-[…]-3’
(§13) R281A MraY-R281A-F 5’-[…]-3’
(§14) MraY-R281A-R 5’-[…]-3’
(§15) W297A MraY-W297A-F 5’-[…]-3’
(§16) MraY-W297A-R 5’-[…]-3’
as §1
(§17) (1 picture or pasted object on this page, not shown here)

Assay [3] addresses T3, MraYBS K102A mutant (Bacillus subtilis, UniProt Q03521, K102A).
T3 construct: MBP; made in house
As to the kind of experiment: Fluorescent enhancement assay, mutant MraY. The conditions noted are these: 6 as the substrate. As to the method: as §2, §3, §4, §5, §6, §7, §8, §9, §10, §11, §12, §13, §14, §15, §16, §1, §17

The target in assay [4] is T4, MraYBS K226A mutant (Bacillus subtilis, UniProt Q03521, K226A).
T4 construct: MBP; made in house
As to the kind of experiment: Fluorescent enhancement assay, mutant MraY. The settings on record: 6 as the substrate. As to the method:
as §2, §3, §4, §5, §6, §7, §8, §9, §10, §11, §12, §13, §14, §15, §16, §1, §17

Assay [5] has as its target T5, MraYBS Q271A mutant (Bacillus subtilis, UniProt Q03521, Q271A).
T5 construct: MBP; made in house
As to the kind of experiment: Fluorescent enhancement assay, mutant MraY. The conditions noted are these: 6 as the substrate. As to the method: as §2, §3, §4, §5, §6, §7, §8, §9, §10, §11, §12, §13, §14, §15, §16, §1, §17

Assay [6] deals with T6, MraYBS R281A mutant (Bacillus subtilis, UniProt Q03521, R281A).
T6 construct: MBP; made in house
In words: Fluorescent enhancement assay, mutant MraY. The conditions noted are these: 6 as the substrate. On the procedure:
as §2, §3, §4, §5, §6, §7, §8, §9, §10, §11, §12, §13, §14, §15, §16, §1, §17

Assay [7] concerns the target T7, MraYBS T51A mutant (Bacillus subtilis, UniProt Q03521, T51A).
T7 construct: MBP; made in house
As to the kind of experiment: Fluorescent enhancement assay, mutant MraY. The conditions noted are these: 6 as the substrate. On the procedure: as §2, §3, §4, §5, §6, §7, §8, §9, §10, §11, §12, §13, §14, §15, §16, §1, §17

Assay [8] addresses T8, MraYBS T53A mutant (Bacillus subtilis, UniProt Q03521, T53A).
T8 construct: MBP; made in house
As to the kind of experiment: Fluorescent enhancement assay, mutant MraY. The settings on record: 6 as the substrate. On the procedure: as §2, §3, §4, §5, §6, §7, §8, §9, §10, §11, §12, §13, §14, §15, §16, §1, §17

In assay [9] the target is T9, MraYBS W297A mutant (Bacillus subtilis, UniProt Q03521, W297A).
T9 construct: MBP; made in house
In words: Fluorescent enhancement assay, mutant MraY. The settings on record: 6 as the substrate. On the procedure:
as §2, §3, §4, §5, §6, §7, §8, §9, §10, §11, §12, §13, §14, §15, §16, §1, §17

The target in assay [10] is T7, MraYBS T51A mutant. As to the kind of experiment: HPLC-based MraY functional assay, mutant MraY. The conditions noted are these: consumption of 6 in one-hour reaction. As to the method: (§18) The purified MraY from Bacillus subtilis was prepared as described in our previous reports. For 5 and 7–10, the reaction mixture containing MraYBS (10 μg/mL), C55P (200 μM) in 40 μL reaction buffer (30 mM Tris, 10 mM MgCl2, 10 mM NaCl, 0.1 mM Tween-20, 2.5% DMSO, pH 8.0) were pre-incubated at 37 °C for 15 min. The reactions were initiated by the addition of Park’s nucleotide analogues (10 μM) and incubated at 37 °C for 1 h. The reaction mixtures were added by uridine (0.01 mg/mL) as the internal standard and heated to 100 °C to stop the transferring reaction. The samples were analyzed by RP-C18 HPLC with gradient elution of 0.25 M NH4HCO3(aq)/15% MeOH in water (100:0 to 0:100) at a flow rate of 1 mL/min over 45 min, and the peaks of substrates were monitored at UV 260 nm. […] The reaction mixtures were heated to 100 °C to stop the transferring reaction, and samples were analyzed by an anion-exchange column (SAX1, Supelco Co., 5 μm, 4.6 × 250 mm) with a linear gradient elution of NH4OAc (20 mM to 1 M in MeOH) at a flow rate of 1.0 mL/min over 30 min. The fluorescent substrates were monitored with λex 466 nm/λem 535 nm by fluorescence detector. […]

For assay [11], the target named is T2, MraYBS F228A mutant. As to the kind of experiment: HPLC-based MraY functional assay, mutant MraY. The conditions noted are these: consumption of 6 in one-hour reaction. As to the method: as §18
In assay [12] the target is T5, MraYBS Q271A mutant. As to the kind of experiment: HPLC-based MraY functional assay, mutant MraY. The settings on record: consumption of 6 in one-hour reaction. On the procedure: as §18

SMILES strings stand for the structures.

Turning to `CC(=O)N[C@H]1[C@@H](OP(=O)(O)OP(=O)(O)OC[C@H]2O[C@@H](n3ccc(=O)[nH]c3=O)[C@H](O)[C@@H]2O)O[C@H](CO)[C@@H](O)[C@@H]1O[C@H](C)C(=O)N[C@@H](C)C(=O)N[C@H](CCC(=O)N[C@@H](CCCCNC(=O)CCCCCNc1ccc([N+](=O)[O-])c2nonc12)C(=O)N[C@H](C)C(=O)N[C@H](C)C(=O)O)C(=O)O` [Compound 6, NBD-Park’s nucleotide], the Vmax in assay [1] worked out at 18 ± 0.8 FLU/min; in [2], 10 ± 1.5 FLU/min; in assay [3] it was 5 ± 0.2 FLU/min; in [4] it was 23 ± 4.7 FLU/min; in assay [5] it was 6 ± 1.7 FLU/min; in assay [6] it was 10 ± 1.4 FLU/min. Besides, the Vmax in assay [7] is listed as 5 ± 0.2 FLU/min; in assay [8], 7 ± 0.8 FLU/min; in assay [9], 4 ± 0.4 FLU/min. Further, the Relative activity in assay [10] amounted to 60%; in assay [11], 98%; in assay [12], 16%.
